Common to all, as to format: in vivo
The test system of experiment [1] is Galium (catchweed bedstraw, Galium aparine). Description: Test A postemergence. The settings on record: Galium, post-emergence, 240 h, read-out: Plant response rating, Galium; for pest or weed control at 125 g/ha: 125 g ai/ha. The method, boiled down: (§1)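 Preemergence directed soil spray on seeded pots, or postemergence application to plants 2–10 cm, one- to two-leaf. Solvent mixture non-phytotoxic, with surfactant. Scored ~10 d later, visually, 0–100 vs untreated.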

For experiment [2], the system named is barnyardgrass (Echinochloa crus-galli). Description: Test A postemergence. The note with it: Echinochloa crus-galli, post-emergence, 240 h, read-out: Plant response rating, Barnyardgrass; for pest or weed control at 125 g/ha: 125 g ai/ha. The method, boiled down: as §1
Experiment [3] has as its system corn (Zea mays). Description: Test A postemergence. The note with it: Zea mays, post-emergence, 240 h; for Corn plant response rating (crop injury, 0 = no effect, 100 = complete kill) at 125 g/ha: 125 g ai/ha. The method in brief:
as §1

Experiment [4] relates to pigweed (Amaranthus retroflexus). Description: Test A postemergence. The note with it: Amaranthus retroflexus, post-emergence, 240 h, read-out: Plant response rating, Pigweed; for pest or weed control at 125 g/ha: 125 g ai/ha. The method in brief: as §1
Experiment [5] deals with Kochia (Kochia scoparia). Description: Test A postemergence. The note with it: Bassia scoparia, post-emergence, 240 h, read-out: Plant response rating, Kochia; for pest or weed control at 125 g/ha: 125 g ai/ha. The method, boiled down: as §1
Experiment [6] concerns ryegrass, Italian (Italian ryegrass, Lolium multiflorum). Description: Test A postemergence. The note with it: Lolium multiflorum, post-emergence, 240 h, read-out: Plant response rating, Ryegrass, Italian; for pest or weed control at 125 g/ha: 125 g ai/ha. The method, boiled down:
as §1

Experiment [7] relates to giant foxtail (Setaria faberii). Description: Test A postemergence. The note with it: Setaria faberi, post-emergence, 240 h, read-out: Plant response rating, Foxtail, Giant; for pest or weed control at 125 g/ha: 125 g ai/ha. The method, boiled down:
as §1

The test system of experiment [8] is blackgrass (Alopecurus myosuroides). Description: Test A postemergence. The settings on record: Alopecurus myosuroides, post-emergence, 240 h, read-out: Plant response rating, Blackgrass; for pest or weed control at 125 g/ha: 125 g ai/ha. The method, boiled down: as §1
Experiment [9] concerns wheat (Triticum aestivum). Description: Test A postemergence. The note with it: Triticum aestivum, post-emergence, 240 h, read-out: Plant response rating, Wheat; for plant injury at 125 g/ha: 125 g ai/ha. The method, boiled down:
as §1

The test system of experiment [10] is ragweed (common ragweed, Ambrosia elatior). Description: Test A postemergence. The settings on record: Ambrosia artemisiifolia, post-emergence, 240 h, read-out: Plant response rating, Ragweed; for pest or weed control at 125 g/ha: 125 g ai/ha. The method, boiled down: as §1
In experiment [11] the test system is barnyardgrass (Echinochloa crus-galli). Description: Test B flooded paddy test. The settings on record: Echinochloa crus-galli, Flood, 250 g ai/ha. The method in brief:
(§2)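 Plants at 2-leaf stage flooded to 3 cm above soil, with compounds applied directly to paddy water and that depth maintained. Plants kept in greenhouse 13–15 d. Visual rating versus controls on a 0 (no effect) to 100 (complete control) scale.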

The test system of experiment [12] is ducksalad (Heteranthera limosa). Description: Test B flooded paddy test. The note with it: Heteranthera limosa, Flood, 250 g ai/ha. The method, boiled down: as §2
Experiment [13] has as its system rice (Oryra sativa). Description: Test B flooded paddy test. The note with it: Oryza sativa, Flood, 250 g ai/ha. The method, boiled down: as §2
The test system of experiment [14] is sedge, umbrella (small-flower umbrella sedge, Cyperus difformis). Description: Test B flooded paddy test. The note with it: Cyperus difformis, Flood, 250 g ai/ha. The method in brief: as §2
The mark [15] stands for this setting: Postemergence, visual injury after approx. 10 d, 0 to 100 scale, 0 no effect, 100 complete control.
[16] abbreviates: Postemergence, 500 g ai/ha, visual injury, 0 to 100 scale (0 no effect, 100 complete control), approx. 10 d.
Where [17] appears, read: postemergence, visual injury after approximately 10 d, 0 to 100 scale (0 no effect, 100 complete control).

Drawing on patent US12077503B2, “Substituted cyclic amides and their use as herbicides” (FMC CORPORATION, priority 2015, dated 2024), this text covers pest or weed control, Corn plant response rating (crop injury, 0 = no effect, 100 = complete kill) and plant injury for two molecules.

Read-outs that look alike come from different tables or passages of the source.

As to `O=C1NC[C@H](c2cccc(C(F)(F)F)n2)[C@H]1C(=O)Nc1cccc(F)c1F` [Compound 1385], the pest or weed control at 125 g/ha in experiment [1] (setting [15]) was found to be 30%; in [2] (setting [15]) it was 80%; in experiment [4] (setting [15]), 0%; in experiment [5] (setting [15]) it was 0%; in experiment [6] (setting [15]) it was 0%; in experiment [7] (setting [15]), 70%. Also, the pest or weed control at 125 g/ha came to 20% in [8] (setting [15]) and 0% in experiment [10] (setting [15]). Besides, the pest or weed control at 500 g/ha in [1] (setting [16]) came to 50%; in experiment [2] (setting [16]), 90%; in experiment [4] (setting [16]), 0%; in [5] (setting [16]), 0%; in experiment [6] (setting [16]) it was 20%; in experiment [7] (setting [16]), 90%. In addition, the pest or weed control at 500 g/ha came out at 20% in experiment [8] (setting [16]) and 0% in experiment [10] (setting [16]). The Corn plant response rating (crop injury, 0 = no effect, 100 = complete kill) at 125 g/ha in experiment [3] (setting [15]) was determined as 0%. The Corn plant response rating (crop injury, 0 = no effect, 100 = complete kill) at 500 g/ha in experiment [3] (setting [16]) came to 20%. The plant injury at 125 g/ha in [9] (setting [15]) was 0%. Also, the plant injury at 500 g/ha in experiment [9] (setting [16]) came out at 20%. In addition, the pest or weed control at 250 g/ha in experiment [11] (360 h, visually evaluated after 13 to 15 d, read-out: Plant response rating, Barnyardgrass (0 to 100 scale where 0 is no effect and 100 is complete control)) worked out at 0%; in experiment [12] (360 h, visually evaluated after 13 to 15 d, read-out: Plant response rating, Ducksalad (0 to 100 scale where 0 is no effect and 100 is complete control)), 40%; in experiment [13] (360 h, visually evaluated after 13 to 15 d, read-out: Plant response rating, Rice (0 to 100 scale where 0 is no effect and 100 is complete control)) it was 0%; in [14] (360 h, visually evaluated after 13 to 15 d, read-out: Plant response rating, Sedge, Umbrella (0 to 100 scale where 0 is no effect and 100 is complete control)), 0%.
With `CN1C[C@H](c2cccc(S(C)(=O)=O)c2)[C@@H](C(=O)Nc2cccc(F)c2F)C1=O` (racemic) [Compound 777], the pest or weed control at 125 g/ha in experiment [1] (setting [17]) worked out at 0%; in experiment [2] (setting [17]), 70%; in [4] (setting [17]), 0%; in [5] (setting [17]), 0%; in experiment [6] (setting [17]), 0%; in experiment [7] (setting [17]), 30%. The pest or weed control at 125 g/ha in experiment [8] (setting [17]) and in experiment [10] (setting [17]) was 0% in each case. For the same molecule, in [3] (setting [17]), the Corn plant response rating (crop injury, 0 = no effect, 100 = complete kill) at 125 g/ha came to 40%. Further, the plant injury at 125 g/ha in experiment [9] (setting [17]) is 30%. Also, the pest or weed control at 250 g/ha in experiment [11] (scale of 0 to 100 where 0 is no effect and 100 is complete control, read-out: Barnyardgrass plant response rating) was 30%; in [12] (scale of 0 to 100 where 0 is no effect and 100 is complete control, read-out: Ducksalad plant response rating), 0%; in experiment [13] (scale of 0 to 100 where 0 is no effect and 100 is complete control, read-out: Rice plant response rating) it was 20%; in [14] (scale of 0 to 100 where 0 is no effect and 100 is complete control, read-out: Sedge, Umbrella plant response rating), 0%.
